Assay results taken from PubChem BioAssay (NCI).
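All cell lines were grown in 96-well plates and treated with compound for 48 hours. TGI marks complete inhibition of growth.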

Assays:
Assay in all cases: inhibition of tumour cell growth, NCI panel, 48 h
NCI/ADR-RES ovarian = test system: NCI/ADR-RES ovarian
SK-MEL-5 melanoma = test system: SK-MEL-5 melanoma
RPMI-8226 leukemia = test system: RPMI-8226 leukemia
MDA-MB-231 breast = test system: MDA-MB-231 breast
ACHN renal = test system: ACHN renal
SF-268 CNS = test system: SF-268 CNS
MCF7 breast = test system: MCF7 breast
HCT-116 colon = test system: HCT-116 colon
K-562 leukemia = test system: K-562 leukemia
SK-MEL-28 melanoma = test system: SK-MEL-28 melanoma
DU-145 prostate = test system: DU-145 prostate
A549 NSCLC = test system: A549 NSCLC
SF-295 CNS = test system: SF-295 CNS
NCI-H460 lung = test system: NCI-H460 lung
RXF 393 renal = test system: RXF 393 renal

| SMILES | TGI (NCI/ADR-RES ovarian) [µM] | TGI (SK-MEL-5 melanoma) [µM] | TGI (RPMI-8226 leukemia) [µM] | TGI (MDA-MB-231 breast) [µM] | TGI (ACHN renal) [µM] | TGI (SF-268 CNS) [µM] | TGI (MCF7 breast) [µM] | TGI (HCT-116 colon) [µM] | TGI (K-562 leukemia) [µM] | TGI (SK-MEL-28 melanoma) [µM] | TGI (DU-145 prostate) [µM] | TGI (A549 NSCLC) [µM] | TGI (SF-295 CNS) [µM] | TGI (NCI-H460 lung) [µM] | TGI (RXF 393 renal) [µM] |
| --- | --- | --- | --- | --- | --- | --- | --- | --- | --- | --- | --- | --- | --- | --- | --- |
| C/C(=N\NS(=O)(=O)c1ccc(C)cc1)c1ccccn1 | > 100 | > 100 | > 100 | > 100 | 83.3 | > 100 | > 100 | > 100 | > 100 | > 100 | > 100 | > 100 | > 100 | > 100 | > 100 |
| O=C1NC(=S)N/C1=C\c1cccs1 | > 100 | > 100 | > 100 | > 100 | – | > 100 | > 100 | > 100 | > 100 | > 100 | > 100 | > 100 | > 100 | – | > 100 |
| CC(C)NC(=O)OCc1c2c(n(C)c1COC(=O)NC(C)C)-c1cc(Cl)c(Cl)cc1CC2 | > 100 | > 100 | 64.8 | 55.3 | > 100 | > 100 | 45.2 | 66.9 | 41.6 | > 100 | > 100 | > 100 | > 100 | > 100 | 94.8 |
| Cc1c(N2C(=O)C(Cl)C2/C=C/c2ccccc2)c(=O)n(-c2ccccc2)n1C (centres undefined) | > 100 | 30 | 34.7 | 72.8 | 45.6 | > 100 | 87.5 | 34.8 | 51.1 | – | > 100 | 86.9 | 48.1 | > 100 | 79.3 |
| CS(=O)(=O)C(C#N)c1nc2ccccc2nc1Cl (centres undefined) | > 100 | > 27.1 | > 100 | > 100 | > 100 | > 100 | > 100 | > 100 | > 100 | > 100 | > 100 | > 100 | > 100 | > 100 | > 100 |
| COc1cc2c(cc1O)c(O)cc1c3cc(OC)c(OC)cc3c[n+](C)c21 | > 100 | 40.2 | > 100 | > 67.9 | > 100 | > 100 | > 100 | > 100 | > 80.5 | > 100 | > 43.7 | > 100 | > 100 | > 100 | > 100 |
| Cc1nc2ccc(Br)cc2c(=O)n1-c1nnc(C(C)(C)C)s1 | > 10 | > 10 | > 10 | > 10 | > 10 | > 10 | > 10 | > 10 | > 10 | > 10 | > 10 | > 10 | > 10 | > 10 | > 10 |
| CCOC(=O)/C=C(\C(=O)OCC)n1cc(C)c(=O)n(Cc2cn(CCCCOC(C)=O)nn2)c1=O | 57 | > 53.1 | 21.7 | 34.6 | 11.1 | 28.4 | 24.8 | 27.6 | 9.01 | 31.7 | 37.2 | 36.1 | 35.5 | 26 | 7.5 |
| COc1ccc(/C=C2\N=C(N3CCCCC3)NC2=O)cc1 | > 100 | – | > 100 | > 100 | > 100 | > 100 | > 100 | > 100 | – | > 100 | > 100 | > 100 | > 100 | – | > 100 |
| Clc1ccc(CCN(CCc2ccc(Cl)c(Cl)c2)CCN2CCCC2)cc1Cl | 3.39 | 3.2 | 5.38 | 2.91 | 3.2 | 3.73 | 2.88 | – | – | – | 4.3 | 3.15 | 3.3 | 3.34 | 3.33 |
| O=C(O)CO[C@@]12C#C/C=C\C#C[C@@H]3N(C(=O)Oc4ccccc4)c4ccccc4[C@]14O[C@@]34CCC2 | > 100 | > 100 | > 100 | 26.6 | > 100 | 85.2 | 46.7 | > 100 | 92.9 | > 100 | > 100 | > 100 | – | > 100 | – |
| COc1ccc2c(c1)/C(=C\c1c(Cl)[nH]c3cc(C)c(OC)cc13)C(=O)N2 | 4.04 | 8.7 | 27.6 | 13.7 | 17.3 | 8.77 | 16.7 | 6.36 | 27.7 | 29 | 5.98 | 18.2 | 13.4 | 8.7 | 7.67 |
| CSc1c(C(=O)Nc2ccccc2)c(N)n(N)c(=O)c1C#N | > 100 | > 100 | > 100 | > 100 | – | > 100 | > 100 | > 100 | > 100 | > 100 | > 100 | > 100 | – | > 100 | > 100 |
| N#Cc1c(-c2ccc(Cl)cc2)c2c(n(C3OC(CO)C(O)C(O)C3O)c1=S)CCCC2 (centres undefined) | > 100 | 80.3 | > 100 | > 100 | > 100 | > 100 | > 100 | > 100 | > 100 | > 100 | > 100 | > 100 | > 100 | > 100 | – |
| C#CCn1c(=O)c(I)cn(/C(=C/C(=O)OCC)C(=O)OCC)c1=O | > 84 | – | 2.33 | 29.5 | 3.27 | 35.1 | 6.16 | 3.59 | – | 26.2 | 23.9 | 36 | > 59.2 | 49.8 | 12.2 |
| Nc1ccccc1CCN1CCN(CCCc2ccccc2)CC1 | > 100 | 32.6 | 75.5 | > 100 | > 100 | > 100 | > 100 | > 100 | > 100 | > 100 | > 100 | > 100 | > 100 | > 100 | – |

| SMILES | TGI (NCI/ADR-RES ovarian) [µM] | TGI (SK-MEL-5 melanoma) [µM] | TGI (RPMI-8226 leukemia) [µM] | TGI (MDA-MB-231 breast) [µM] | TGI (ACHN renal) [µM] | TGI (SF-268 CNS) [µM] | TGI (MCF7 breast) [µM] | TGI (HCT-116 colon) [µM] | TGI (K-562 leukemia) [µM] | TGI (SK-MEL-28 melanoma) [µM] | TGI (DU-145 prostate) [µM] | TGI (A549 NSCLC) [µM] | TGI (SF-295 CNS) [µM] | TGI (NCI-H460 lung) [µM] | TGI (RXF 393 renal) [µM] |
| --- | --- | --- | --- | --- | --- | --- | --- | --- | --- | --- | --- | --- | --- | --- | --- |
| COC(=O)C1=C(OC(=O)/C(=C/c2ccccc2)c2ccc(Cl)cc2Cl)C(C(=O)OC)[C@@]2(O)[C@@H](C(=O)OC)[C@H](C)C[C@@H]1[C@@H]2C(=O)OC (some centres undefined) | > 100 | > 100 | > 100 | > 100 | > 100 | > 100 | > 100 | > 100 | > 100 | > 100 | > 100 | > 100 | > 100 | > 100 | > 100 |
| Cc1ccc(C2(O)CSC(=NC34CC5CC(CC(C5)C3)C4)N2C(P(=O)(O)O)P(=O)(O)O)cc1 (centres undefined) | 68.3 | – | > 100 | > 100 | > 100 | > 100 | > 100 | 67.5 | > 100 | > 100 | > 100 | > 100 | > 100 | > 100 | – |
| NC(=Nc1ccccc1Cl)c1ccccc1N | > 100 | > 100 | > 100 | > 100 | > 100 | > 100 | > 100 | > 100 | > 100 | > 100 | > 100 | > 100 | > 100 | > 100 | > 100 |
| O=C1C2=Cc3ccccc3OC2(O)Oc2cc3ccccc3cc21 (centres undefined) | > 100 | > 100 | > 100 | > 100 | > 100 | > 100 | > 100 | > 100 | > 100 | > 100 | > 100 | > 100 | > 100 | > 100 | > 100 |
| COc1ccc(CC2COc3cc(OC)cc(OC)c3C2=O)cc1 (centres undefined) | 39.9 | 68 | 40.5 | > 100 | > 100 | > 100 | > 100 | 32.7 | > 100 | > 100 | 77.2 | > 100 | 48.3 | > 100 | > 100 |
| CC(C)CCNC(=O)c1ccc(CNC(=O)/C=C/c2cccc(Oc3ccccc3)c2)cc1 | > 100 | > 100 | > 100 | 77.5 | > 100 | > 100 | > 100 | > 100 | > 100 | > 100 | > 100 | > 100 | > 100 | > 100 | 52 |
| O=C(NC1=C(Cl)C(=O)c2ccccc2C1=O)c1ccccc1 | 39.1 | 78.9 | > 100 | > 100 | 40 | > 100 | 39.2 | 32.2 | 54.3 | > 100 | > 100 | > 100 | > 100 | > 100 | 34 |
| C=CCn1c(N)c(C#N)c(C#N)c1CCC | > 100 | > 100 | > 100 | > 100 | > 100 | > 100 | > 100 | – | > 100 | – | > 100 | > 100 | > 100 | – | > 100 |
| CC(C)(C)C1CCC(=O)/C(=C/CC2CC(=O)N(c3ccccc3)C(=O)C2)C1 (centres undefined) | 37.7 | 31.7 | 49.1 | > 100 | 42.9 | 47.1 | 49.5 | 29.3 | 48.3 | 47.4 | 40 | – | > 100 | 30.2 | – |
| COc1ccc(Cn2c3c(cc(OC(C)=O)c2=O)Cc2ccccc2-3)cc1 | 8.53 | 41.6 | – | > 50 | 32 | 33.8 | > 50 | 13.2 | 34 | > 50 | > 50 | > 50 | > 50 | 15 | 42.6 |
| CC1(C)N/C(=C\[N+](=O)[O-])C(C)(C)N1O | > 10 | > 10 | > 10 | > 10 | > 10 | > 10 | > 10 | > 10 | – | > 10 | > 10 | > 10 | > 10 | > 10 | > 10 |
| COC(=O)C1Cc2cc3c(cc2C1=O)CCC3 (centres undefined) | > 100 | > 100 | > 100 | > 100 | > 100 | > 100 | > 100 | > 100 | > 100 | > 100 | > 100 | > 100 | > 100 | > 100 | – |
| COc1ccc(-c2c(C(C)=O)c(-c3ccccc3)n(C3OC(CO)C(O)C(O)C3O)c(=S)c2C#N)cc1 (centres undefined) | > 100 | > 100 | – | > 100 | > 100 | > 100 | > 100 | > 100 | > 100 | > 100 | > 100 | > 100 | > 100 | > 100 | > 100 |
| COC(=O)c1csc([C@@H](OC(=O)[C@H](C)[C@H](CCCC(C)(Cl)Cl)OC(=O)c2csc([C@H](O)CO)n2)C(C)C)n1 | 45.4 | 31.8 | 34.1 | 36.1 | 25.8 | 34.8 | 35 | – | 33.6 | 24.2 | 24.8 | 32.1 | 29.1 | 23.2 | 4.53 |
| CN(/N=C/c1ccc(C(=O)O)cc1)C1=NCCCCN1 | > 100 | > 100 | > 100 | > 100 | > 100 | > 100 | > 100 | > 100 | > 100 | > 100 | > 100 | > 100 | > 100 | > 100 | – |
| Nc1cc([N+](=O)[O-])ccc1C(=O)N1CCC[C@H]1CO | > 100 | – | > 100 | > 100 | > 100 | > 100 | > 100 | > 100 | > 100 | > 100 | > 100 | > 100 | > 100 | > 100 | > 100 |
